Columns and labels:
Assay type in all cases: in vivo
[1] = system: lambsquarters (Chenopodium album); assay: Test B pre-/postemergence plant response
Summary of the method: (§1)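 Compound in solvent + surfactant applied pre-em (loam/sand) or post-em (plants 2–18 cm, peat medium); greenhouse hold 13–15 days; visual 0–100 control score.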

wild oat (Avena fatua) = assay: Test B pre-/postemergence plant response
Summary of the method: as §1

[2] = system: bermudagrass (Cynodon dactylon); assay: Test B pre-/postemergence plant response
Summary of the method: as §1

[3] = system: giant foxtail (Setaria faberii); assay: Test B pre-/postemergence plant response
Summary of the method: as §1

soybean (Glycine max) = assay: Test B pre-/postemergence plant response
Summary of the method: as §1

[4] = system: cocklebur (Xanthium strumarium); assay: Test B pre-/postemergence plant response
Summary of the method: as §1

[5] = system: pigweed (Amaranthus retroflexus); assay: Test B pre-/postemergence plant response
Summary of the method: as §1

[6] = system: green foxtail (Setaria viridis); assay: Test B pre-/postemergence plant response
Summary of the method: as §1

corn (Zea mays) = assay: Test B pre-/postemergence plant response
Summary of the method: as §1

[7] = system: ragweed (common ragweed, Ambrosia elatior); assay: Test B pre-/postemergence plant response
Summary of the method: as §1

kochia (Kochia scoparia) = assay: Test B pre-/postemergence plant response
Summary of the method: as §1

[8] = system: johnsongrass (Sorghum halepense); assay: Test B pre-/postemergence plant response
Summary of the method: as §1

rice (Oryza sativa) = assay: Test B flooded paddy test; details: for Plant response rating, Rice: Flood (flooded paddy test), 13 to 15 days
Summary of the method: (§2)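 Seedlings reaching 2 leaves are flooded 3 cm deep; test material is delivered to that water, which stays at the same depth. Plants remain in a greenhouse 13–15 days and are then scored by eye versus controls from 0 to 100.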

[9] = system: umbrella sedge (Cyperus difformis); assay: Test B flooded paddy test; details: for Plant response rating, Sedge, Umbrella: Flood (flooded paddy test), 13 to 15 days
Summary of the method: as §2

[10] = system: ducksalad (Heteranthera limosa); assay: Test B flooded paddy test; details: for Plant response rating, Ducksalad: Flood (flooded paddy test), 13 to 15 days
Summary of the method: as §2

[11] = system: barnyardgrass (Echinochloa crus-galli); assay: Test B flooded paddy test; details: for Plant response rating, Barnyardgrass: Flood (flooded paddy test), 13 to 15 days
Summary of the method: as §2

[12] = 31 g ai/ha, postemergence, scale 0 to 100, 0 is no effect, 100 is complete control
[13] = 250 g ai/ha, Preemergence, 0 to 100 scale
[14] = Postemergence, 62 g ai/ha, scale 0 (no effect) to 100 (complete control), 13 to 15 days
[15] = Postemergence, 125 g ai/ha, visual rating after 13 to 15 days, scale 0 (no effect) to 100 (complete control)
[16] = Postemergence, 250 g ai/ha, scale 0 to 100 (0 no effect, 100 complete control)
[17] = Preemergence, 31 g ai/ha, scale 0 to 100 (0 no effect, 100 complete control)
[18] = Preemergence, 62 g ai/ha, scale 0 to 100, 0 no effect, 100 complete control
[19] = Preemergence, 125 g ai/ha, scale 0 to 100, 0 no effect, 100 complete control
[20] = 250 g ai/ha, flooded paddy test, visual rating on 0 to 100 scale (0 no effect, 100 complete control) after 13 to 15 days
[21] = 31 g ai/ha, scale of 0 to 100 where 0 is no effect and 100 is complete control
[22] = 62 g ai/ha, scale of 0 to 100 where 0 is no effect and 100 is complete control
[23] = 125 g ai/ha, scale 0 to 100, 0 is no effect, 100 is complete control

With `CCCCc1ncc(C(=O)C2=C(O)CCCC2=O)c(=O)n1-c1ccccc1C` [Compound 62] the “Plant response rating, Lambsquarters” value [1, 12] was 85, the “Plant response rating, Lambsquarters” value [1, 13] was 100 and the “Plant response rating, Lambsquarters” value [1, 14] was 95. For the same molecule, the “Plant response rating, Lambsquarters” value [1, 15] was 98, the “Plant response rating, Lambsquarters” value [1, 16] was 100 and the “Plant response rating, Lambsquarters” value [1, 17] was 98. The “Plant response rating, Lambsquarters” value [1, 18] was 98, the “Plant response rating, Lambsquarters” value [1, 19] was 100 and the “Plant response rating, Oat, Wild” value (wild oat (Avena fatua); [12]) was 5. For the same molecule, the “Plant response rating, Oat, Wild” value (wild oat (Avena fatua); [14]) was 10, the “Plant response rating, Oat, Wild” value (wild oat (Avena fatua); [15]) was 25 and the “Plant response rating, Oat, Wild” value (wild oat (Avena fatua); [16]) was 40. The “Plant response rating, Oat, Wild” value (wild oat (Avena fatua); [17]) was 0, the “Plant response rating, Oat, Wild” value (wild oat (Avena fatua); [18]) was 0 and the “Plant response rating, Oat, Wild” value (wild oat (Avena fatua); [19]) was 0. For the same molecule, the “Plant response rating, Bermudagrass” value [2, 13] was 100, the “Plant response rating, Bermudagrass” value [2, 14] was 80 and the “Plant response rating, Bermudagrass” value [2, 15] was 85. For the same molecule, the “Plant response rating, Bermudagrass” value [2, 16] was 90, the “Plant response rating, Bermudagrass” value [2, 17] was 20 and the “Plant response rating, Bermudagrass” value [2, 18] was 75. The “Plant response rating, Bermudagrass” value [2, 19] was 95, the “Plant response rating, Foxtail, Giant” value [3, 12] was 55 and the “Plant response rating, Foxtail, Giant” value [3, 13] was 20. For the same molecule, the “Plant response rating, Foxtail, Giant” value [3, 14] was 65, the “Plant response rating, Foxtail, Giant” value [3, 15] was 75 and the “Plant response rating, Foxtail, Giant” value [3, 16] was 80. For the same molecule, the “Plant response rating, Foxtail, Giant” value [3, 17] was 0, the “Plant response rating, Foxtail, Giant” value [3, 18] was 0 and the “Plant response rating, Foxtail, Giant” value [3, 19] was 20. For the same molecule, the “Plant response rating, Soybean” value (soybean (Glycine max); [12]) was 75, the “Plant response rating, Soybean” value (soybean (Glycine max); [14]) was 80 and the “Plant response rating, Soybean” value (soybean (Glycine max); [15]) was 90. The “Plant response rating, Soybean” value (soybean (Glycine max); [16]) was 95, the “Plant response rating, Soybean” value (soybean (Glycine max); [17]) was 0 and the “Plant response rating, Soybean” value (soybean (Glycine max); [18]) was 80. The “Plant response rating, Soybean” value (soybean (Glycine max); [19]) was 80, the “Plant response rating, Cocklebur” value [4, 12] was 25 and the “Plant response rating, Cocklebur” value [4, 13] was 10. For the same molecule, the “Plant response rating, Cocklebur” value [4, 14] was 55, the “Plant response rating, Cocklebur” value [4, 15] was 55 and the “Plant response rating, Cocklebur” value [4, 16] was 75. For the same molecule, the “Plant response rating, Cocklebur” value [4, 17] was 0, the “Plant response rating, Cocklebur” value [4, 18] was 0 and the “Plant response rating, Cocklebur” value [4, 19] was 0. The “Plant response rating, Pigweed” value [5, 12] was 98, the “Plant response rating, Pigweed” value [5, 14] was 98 and the “Plant response rating, Pigweed” value [5, 15] was 100. The “Plant response rating, Pigweed” value [5, 16] was 100, the “Plant response rating, Pigweed” value [5, 17] was 45 and the “Plant response rating, Pigweed” value [5, 18] was 98. The “Plant response rating, Pigweed” value [5, 19] was 100, the “Plant response rating, Foxtail, Green” value [6, 12] was 40 and the “Plant response rating, Foxtail, Green” value [6, 13] was 10. The “Plant response rating, Foxtail, Green” value [6, 14] was 70, the “Plant response rating, Foxtail, Green” value [6, 15] was 80 and the “Plant response rating, Foxtail, Green” value [6, 16] was 85. For the same molecule, the “Plant response rating, Foxtail, Green” value [6, 17] was 0, the “Plant response rating, Foxtail, Green” value [6, 18] was 0 and the “Plant response rating, Foxtail, Green” value [6, 19] was 10. The “Plant response rating, Corn” value (corn (Zea mays); [12]) was 70, the “Plant response rating, Corn” value (corn (Zea mays); [14]) was 70 and the “Plant response rating, Corn” value (corn (Zea mays); [15]) was 75. The “Plant response rating, Corn” value (corn (Zea mays); [16]) was 80, the “Plant response rating, Corn” value (corn (Zea mays); [17]) was 0 and the “Plant response rating, Corn” value (corn (Zea mays); [19]) was 0. The “Plant response rating, Ragweed” value [7, 12] was 70, the “Plant response rating, Ragweed” value [7, 14] was 75 and the “Plant response rating, Ragweed” value [7, 15] was 75. For the same molecule, the “Plant response rating, Ragweed” value [7, 16] was 80, the “Plant response rating, Ragweed” value [7, 17] was 0 and the “Plant response rating, Ragweed” value [7, 18] was 20. For the same molecule, the “Plant response rating, Ragweed” value [7, 19] was 45, the “Plant response rating, Kochia” value (kochia (Kochia scoparia); [12]) was 10 and the “Plant response rating, Kochia” value (kochia (Kochia scoparia); [13]) was 100. The “Plant response rating, Kochia” value (kochia (Kochia scoparia); [14]) was 25, the “Plant response rating, Kochia” value (kochia (Kochia scoparia); [15]) was 60 and the “Plant response rating, Kochia” value (kochia (Kochia scoparia); [16]) was 80. The “Plant response rating, Kochia” value (kochia (Kochia scoparia); [17]) was 98, the “Plant response rating, Kochia” value (kochia (Kochia scoparia); [18]) was 100 and the “Plant response rating, Kochia” value (kochia (Kochia scoparia); [19]) was 100. The “Plant response rating, Johnsongrass” value [8, 12] was 0, the “Plant response rating, Johnsongrass” value [8, 14] was 0 and the “Plant response rating, Johnsongrass” value [8, 15] was 0. For the same molecule, the “Plant response rating, Johnsongrass” value [8, 16] was 10, the “Plant response rating, Johnsongrass” value [8, 17] was 0 and the “Plant response rating, Johnsongrass” value [8, 18] was 0. The “Plant response rating, Johnsongrass” value [8, 19] was 0, the “Plant response rating, Flood, Rice” value (rice (Oryza sativa); [20]) was 0 and the “Plant response rating, Rice” value (rice (Oryza sativa); [21]) was 0. For the same molecule, the “Plant response rating, Rice” value (rice (Oryza sativa); [22]) was 0, the “Plant response rating, Rice” value (rice (Oryza sativa); [23]) was 0 and the “Plant response rating, Flood, Sedge, Umbrella” value [9, 20] was 0. For the same molecule, the “Plant response rating, Sedge, Umbrella” value [9, 21] was 0, the “Plant response rating, Sedge, Umbrella” value [9, 22] was 0 and the “Plant response rating, Sedge, Umbrella” value [9, 23] was 0. For the same molecule, the “Plant response rating, Flood, Ducksalad” value [10, 20] was 30, the “Plant response rating, Ducksalad” value [10, 21] was 0 and the “Plant response rating, Ducksalad” value [10, 22] was 0. For the same molecule, the “Plant response rating, Ducksalad” value [10, 23] was 0, the “Plant response rating, Flood, Barnyardgrass” value [11, 20] was 0 and the “Plant response rating, Barnyardgrass” value [11, 21] was 0. The “Plant response rating, Barnyardgrass” value [11, 22] was 0 and the “Plant response rating, Barnyardgrass” value [11, 23] was 0.
